Measurements reported in patent US9884065B2, “Inhibiting activity of senescent cells using a glucocorticoid” (Buck Institute for Research on Aging, priority 2011, dated 2018).
Each block holds one compound with its values, some of them ahead of it.

Legend:
IL-1α = assay: Immunostaining for IL-1α in HCA2 cells; assay type: cell-based, human; settings: senescent cells 7 days after irradiation; 500 nM corticosterone or 100 nM cortisol
Experimental: (FIG. 14B) mRNA extracted from cells described in (FIG. 14A) was used to quantify transcripts for IL-6 (normalized to tubulin). (FIG. 14C) Pre and Sen (XRA) cells, prepared as described in (FIG. 14A), were immunostained for IL-1α. Sen (XRA) cells were immunostained 7 days after irradiation.
Cells were cultured in 8-well chamber slides, fixed in 4% formaldehyde (Sigma) for 10 min at 4° C. and permeabilized in PBS-0.5% Triton for 10 min in 4° C.

[1] = tested on: IL-1α/IL-1 receptor (IL-1R) signaling; assay: Western blotting of HCA2 lysates for IRAK1, IκBα, RelA; assay type: cell-based, human; settings: senescent cells; 500 nM corticosterone or 100 nM cortisol
Experimental: Cells were lysed in RIPA buffer. Lysates were sonicated (10 sec), followed by centrifugation. Samples were incubated at 70° C. for 10 min, loaded on 4-15% gradient tris-glycine SDS-polyacrylamide gels (Invitrogen) and separated by electrophoresis. Proteins were transferred to PVDF membranes, blocked in TBST 5% milk for 1 hour at room temperature, and probed overnight at 4° C. with primary antibodies in blocking buffer. Membranes were washed in TBST, and incubated with horseradish peroxidase-conjugated secondary antibodies for 1 hour at room temperature. Blots were developed using Western detection substrate (GE Healthcare).
Primary antibodies and dilutions were: anti-GR (SC-8992, Santa Cruz; 1:500), anti-actin (ab6276, Abcam; 1:50000), anti-MCR (SC-11412, Santa Cruz; 1:500), anti-IRAK1 (SC-5288, Santa Cruz; 1:500), anti-IκBα (#9247, Cell Signaling; 1:500), anti-RelA (SC-109, Santa Cruz; 1:500), and anti-53BP1 (A300-272A, Bethyl; 1:500).

[2] = molecular target: T1, mineralocorticoid receptor (Homo sapiens, UniProt P08235); assay: Immunostaining for mineralocorticoid receptor localization in HCA2 cells; settings: 500 nM corticosterone or 100 nM cortisol, 1 or 7 days
T1 sequence (P08235 1-984): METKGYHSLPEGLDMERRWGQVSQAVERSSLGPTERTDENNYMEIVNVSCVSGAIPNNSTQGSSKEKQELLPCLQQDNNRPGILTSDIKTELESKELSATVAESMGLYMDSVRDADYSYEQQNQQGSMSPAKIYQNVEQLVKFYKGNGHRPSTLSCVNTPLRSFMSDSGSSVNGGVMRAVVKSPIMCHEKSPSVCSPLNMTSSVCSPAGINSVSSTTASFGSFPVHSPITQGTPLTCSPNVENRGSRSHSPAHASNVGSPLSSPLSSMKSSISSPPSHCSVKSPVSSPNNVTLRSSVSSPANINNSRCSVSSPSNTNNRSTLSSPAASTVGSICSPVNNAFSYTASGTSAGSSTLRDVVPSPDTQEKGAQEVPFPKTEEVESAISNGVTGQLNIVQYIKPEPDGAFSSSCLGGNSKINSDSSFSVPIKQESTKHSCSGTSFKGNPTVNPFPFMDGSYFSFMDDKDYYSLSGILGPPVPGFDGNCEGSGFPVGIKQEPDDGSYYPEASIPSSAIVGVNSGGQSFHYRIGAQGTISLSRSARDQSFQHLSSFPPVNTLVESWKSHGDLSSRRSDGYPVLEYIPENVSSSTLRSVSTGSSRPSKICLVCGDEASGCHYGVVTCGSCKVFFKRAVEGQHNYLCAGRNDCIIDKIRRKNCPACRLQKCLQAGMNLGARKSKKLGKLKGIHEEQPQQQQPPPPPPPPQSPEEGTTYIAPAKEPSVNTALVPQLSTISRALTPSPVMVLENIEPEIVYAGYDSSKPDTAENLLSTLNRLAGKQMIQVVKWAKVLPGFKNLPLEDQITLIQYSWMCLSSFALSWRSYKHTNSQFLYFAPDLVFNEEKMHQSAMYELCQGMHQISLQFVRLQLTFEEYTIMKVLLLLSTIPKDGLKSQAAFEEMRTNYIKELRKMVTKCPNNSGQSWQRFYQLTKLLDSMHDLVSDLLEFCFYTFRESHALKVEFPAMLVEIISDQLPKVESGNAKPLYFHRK

mineralocorticoid receptor localization [2]: remained cytoplasmic
Compound: C[C@]12C[C@H](O)[C@H]3[C@@H](CCC4=CC(=O)CC[C@@]43C)[C@@H]1CC[C@@H]2C(=O)CO [corticosterone]
expression of IL-1α protein (nuclear staining) (IL-1α): suppressed expression of IL-1α protein
IRAK1 and IκBα protein abundance [1]: restored IRAK1 and IκBα proteins to near-presenescent levels

Compound: C[C@]12CCC(=O)C=C1CC[C@@H]1[C@@H]2[C@@H](O)C[C@@]2(C)[C@H]1CC[C@]2(O)C(=O)CO [cortisol]
expression of IL-1α protein (nuclear staining) (IL-1α): suppressed expression of IL-1α protein
IRAK1 and IκBα protein abundance [1]: restored IRAK1 and IκBα proteins to near-presenescent levels
mineralocorticoid receptor localization [2]: remained cytoplasmic
